Source: patent publication US20140315933A1, “CHEMICAL COMPOUNDS” (Pfizer Limited, priority 2013, published 2014)
Where a name gives a salt, the structure may show the parent alone.

Target: T1, URAT-1 transporter (Homo sapiens, UniProt Q96S37)
T1 construct: expressed in transfected cells
Test: URAT-1 inhibitor activity: [14C]-uric acid uptake into CHO-URAT1(L)GFP#8 (CHO#8) cells, scintillation proximity
Format: cell-based
From the text: The nucleotide sequence for the long isoform of URAT1 (NM_144585) was C-terminally fused to that of enhanced green fluorescent protein (eGFP) (hereinafter referred to as URAT1(L)GFP). The combined sequence was codon-optimised and custom synthesized. The synthesized sequence was generated in pDONR221 Gateway entry vector (Invitrogen Life Technologies) prior to cloning in pLenti6.3/V5 Gateway destination vector (Invitrogen Life Technologies).
Lentiviral particles were generated according to ViraPower HiPerform expression system procedure (Invitrogen Life Technologies) and used to transduce CHO cells. Blasticidin selection enabled the generation of a stable clonal pool of cells, confirmed by expression of GFP and V5 epitope. The clonal pools were sorted using fluorescence-activated cell sorting (FACS) on the basis of GFP expression with the gating set at the top 50% of expression into single cells which were subsequently expanded to generate clonal lines. […] This cell line was used for all screening activities and is referred to as CHO-URAT1(L)GFP#8 or CHO#8.
The potency of the compounds of formula (I) as inhibitors of the URAT-1 transporter was determined as follows.
CHO#8 cells were cultured in cell line maintenance flasks in medium consisting of Dulbecco's modified Eagle medium (DMEM) with high glucose and sodium pyruvate (4.5 g of glucose per litre, Invitrogen Life Technologies), supplemented with heat-inactivated foetal bovine serum (FBC, 10% v/v), 1×NEAA (non-essential amino acids) and blasticidin (10 μg/ml). Cultures were grown in 175 cm^2 tissue culture flasks in a humidified incubator at approximately 37° C. in approximately 95% air/5% CO2. Near confluent CHO#8 cell cultures were harvested by trypsinisation, re-suspended in culture medium and the process was repeated once or twice weekly to provide sufficient cells for use.
Assay ready flasks were generated by the same method, except the cells were not cultured in blasticidin.
Assay ready frozen cells were generated by freezing 40,000,000 cells in 1 ml of FBS (without blasticidin) containing 10% DMSO per vial. One vial was sufficient for 5 assay plates. Each vial was thawed rapidly to 37° C., washed and re-suspended in pre-warmed culture medium for seeding onto assay plates.
CHO#8 cells were seeded onto Cytostar™ 96-well plates at a density of […]. The cells were cultured for 1 day at approximately 37° C. in a humidified incubator containing approximately 5% CO2 in air. After approximately 24 hours culture, cells were used for uptake experiments.
On the day of assay, culture medium was removed from the wells and the cells were washed once with 50 μL of chloride-containing buffer (136.7 mM NaCl, 5.36 mM KCl, 0.952 mM CaCl2, 0.441 mM KH2PO4, 0.812 mM MgSO4, 5.6 mM D-glucose, 0.383 mM Na2HPO4.2H2O, 10 mM HEPES, pH 7.4 with NaOH). The cells were pre-incubated with another 50 μL of chloride-containing buffer for one hour at approximately 37° C. in a humidified incubator containing approximately 5% CO2 in air.
Assay compound plates were prepared by diluting the compounds of formula (I) with chloride-free buffer (125 mM Na-gluconate, 4.8 mM K-gluconate, 1.3 mM Ca-gluconate, 1.2 mM KH2PO4, 1.2 mM MgSO4, 5.6 mM D-glucose, 25 mM HEPES, pH 7.4 with NaOH) in 100% DMSO to a final concentration of 1% DMSO. [^14C]-Uric Uric acid working stock was made by addition of radiolabeled compound to a final concentration of 120 nM in chloride-free buffer. In all wells, the final assay concentration of solvent (DMSO) was 0.25%; the final assay concentration of [^14C]-uric acid was 30 nM in chloride-free buffer and the final compound of formula (I) concentrations ranged from 0 to 10 μM.
After pre-incubation, cells were washed with 50 μL of chloride-free buffer and another 50 μL of chloride-free buffer was added. […]

T1 sequence (Q96S37 with tags, fused parts or gaps): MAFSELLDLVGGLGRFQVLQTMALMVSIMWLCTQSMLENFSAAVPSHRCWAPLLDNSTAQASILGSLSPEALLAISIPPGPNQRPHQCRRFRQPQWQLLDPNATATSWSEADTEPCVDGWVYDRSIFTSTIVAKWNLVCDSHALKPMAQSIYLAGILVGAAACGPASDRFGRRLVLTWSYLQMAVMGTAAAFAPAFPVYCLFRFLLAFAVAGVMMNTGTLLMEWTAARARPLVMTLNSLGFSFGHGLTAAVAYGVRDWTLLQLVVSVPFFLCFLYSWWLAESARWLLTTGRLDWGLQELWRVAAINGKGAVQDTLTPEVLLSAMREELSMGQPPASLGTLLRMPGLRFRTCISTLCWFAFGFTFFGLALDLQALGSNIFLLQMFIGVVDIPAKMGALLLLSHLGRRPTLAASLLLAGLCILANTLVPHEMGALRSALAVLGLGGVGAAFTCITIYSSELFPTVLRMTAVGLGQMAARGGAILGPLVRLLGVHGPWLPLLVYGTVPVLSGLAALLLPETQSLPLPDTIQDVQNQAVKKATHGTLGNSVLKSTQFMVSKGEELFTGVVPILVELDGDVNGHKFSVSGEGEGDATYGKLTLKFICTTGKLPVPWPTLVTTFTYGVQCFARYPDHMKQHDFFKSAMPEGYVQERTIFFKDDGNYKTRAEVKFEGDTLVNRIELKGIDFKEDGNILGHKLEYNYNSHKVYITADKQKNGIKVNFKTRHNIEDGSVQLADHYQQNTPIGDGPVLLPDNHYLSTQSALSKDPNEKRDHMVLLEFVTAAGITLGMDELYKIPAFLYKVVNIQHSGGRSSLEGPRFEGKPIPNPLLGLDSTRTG

SMILES	IC50
COc1ccc(C(F)(F)F)cc1Oc1ccc(S(=O)(=O)Nc2ncns2)cc1C#N [Example 29, 3-cyano-4-[2-methoxy-5-(trifluoromethyl)phenoxy]-N-(1,2,4-thiadiazol-5-yl)benzenesulfonamide diethylamine salt]	> 6080 nM
N#Cc1cc(S(=O)(=O)Nc2ncns2)ccc1Oc1ccc(Cl)cc1OC1CCC1 [Example 30, 4-[4-chloro-2-(cyclobutyloxy)phenoxy]-3-cyano-N-(1,2,4-thiadiazol-5-yl)benzenesulfonamide diethylamine salt]	609 nM
N#Cc1cc(S(=O)(=O)Nc2ncns2)ccc1Oc1cc(Cl)ccc1OC(F)F [Example 31, 4-[5-chloro-2-(difluoromethoxy)phenoxy]-3-cyano-N-(1,2,4-thiadiazol-5-yl)benzenesulfonamide]	2220 nM
N#Cc1cc(S(=O)(=O)Nc2ncns2)ccc1Oc1ccc(Cl)cc1OC(F)(F)F [Example 32, 4-[4-chloro-2-(trifluoromethoxy)phenoxy]-3-cyano-N-(1,2,4-thiadiazol-5-yl)benzenesulfonamide diethylamine salt]	986 nM
N#Cc1cc(S(=O)(=O)Nc2ncns2)ccc1Oc1ccc(C(F)(F)F)cc1C(F)(F)F [Example 33, 4-[2,4-bis(trifluoromethyl)phenoxy]-3-cyano-N-(1,2,4-thiadiazol-5-yl)benzenesulfonamide]	6190 nM
N#Cc1cc(S(=O)(=O)Nc2ncns2)ccc1Oc1ccccc1C(F)(F)F [Example 35, 3-cyano-4-(2-(trifluoromethyl)phenoxy)-N-(1,2,4-thiadiazol-5-yl)benzenesulfonamide]	4320 nM
N#Cc1cc(S(=O)(=O)Nc2ncns2)ccc1Oc1ccccc1F [Example 36, 3-cyano-4-(2-fluorophenoxy)-N-(1,2,4-thiadiazol-5-yl)benzenesulfonamide]	1940 nM
CC(C)(C)c1ccc(Oc2ccc(S(=O)(=O)Nc3ncns3)cc2C#N)c(Cl)c1 [Example 38, 4-(4-tert-butyl-2-chlorophenoxy)-3-cyano-N-(1,2,4-thiadiazol-5-yl)benzenesulfonamide]	> 7100 nM
Cc1cc(F)ccc1Oc1ccc(S(=O)(=O)Nc2ncns2)cc1C#N [Example 39, 3-cyano-4-(4-fluoro-2-methylphenoxy)-N-(1,2,4-thiadiazol-5-yl)benzenesulfonamide]	994 nM
Cc1ccc(Cl)cc1Oc1ccc(S(=O)(=O)Nc2ncns2)cc1C#N [Example 40, 4-(5-chloro-2-methylphenoxy)-3-cyano-N-(1,2,4-thiadiazol-5-yl)benzenesulfonamide]	> 2920 nM
Cc1ccc(F)cc1Oc1ccc(S(=O)(=O)Nc2ncns2)cc1C#N [Example 41, 3-cyano-4-(5-fluoro-2-methylphenoxy)-N-(1,2,4-thiadiazol-5-yl)benzenesulfonamide]	1350 nM
Cc1cc(Cl)ccc1Oc1ccc(S(=O)(=O)Nc2ncns2)cc1C#N [Example 42, 4-(4-chloro-2-methylphenoxy)-3-cyano-N-(1,2,4-thiadiazol-5-yl)benzenesulfonamide]	> 3090 nM
N#Cc1cc(S(=O)(=O)Nc2ncns2)ccc1Oc1ccc(F)cc1F [Example 43, 3-cyano-4-(2,4-difluorophenoxy)-N-(1,2,4-thiadiazol-5-yl)benzenesulfonamide]	877 nM
N#Cc1cc(S(=O)(=O)Nc2ncns2)ccc1Oc1cc(C(F)(F)F)ccc1F [Example 44, 3-cyano-4-[2-fluoro-5-(trifluoromethyl)phenoxy]-N-(1,2,4-thiadiazol-5-yl)benzenesulfonamide]	4330 nM
N#Cc1cc(S(=O)(=O)Nc2ncns2)ccc1Oc1cc(C(F)(F)F)ccc1Cl [Example 45, 4-[2-chloro-5-(trifluoromethyl)phenoxy]-3-cyano-N-(1,2,4-thiadiazol-5-yl)benzenesulfonamide]	1020 nM
N#Cc1cc(S(=O)(=O)Nc2ncns2)ccc1Oc1ccc(F)cc1Cl [Example 46, 4-(2-chloro-4-fluorophenoxy)-3-cyano-N-(1,2,4-thiadiazol-5-yl)benzenesulfonamide]	504 nM
